Assay results taken from the NIST ThermoML archive (doi:10.1016/j.fluid.2005.04.003).
± gives the expanded uncertainty stated by the source.

Legend:
[1] = Liquid; for mass density: 298.15 K, 101.33 kPa
[2] = refractive index (Na D-line) (dimensionless); settings: 298.15 K; 101.33 kPa; Liquid; Standard Abbe refractometry

mass density [1]	Normal boiling temperature [1]	refractive index [2]	Compound
786.63 ± 0.63 kg/m3	64.4 ± 0.08 °C	1.3264 ± 0.0007	CO [methanol]
785.22 ± 0.64 kg/m3	78.29 ± 0.08 °C	1.3592 ± 0.00073	CCO [ethanol]
760.57 ± 0.66 kg/m3	101.42 ± 0.08 °C	1.38857 ± 0.00072	CCOC(C)(C)CC [1,1-dimethylpropyl ethyl ether]
